The values below come from article PMC6332318, “Synthetic Development of New 3-(4-Arylmethylamino)butyl-5-arylidene-rhodanines under Microwave Irradiation and Their Effects on Tumor Cell Lines and against Protein Kinases” (Molecules, 2015).

Broadly, the IC50 is the midpoint of a concentration-inhibition curve. Low values mean greater potency, high ones weaker potency. The melting point is the temperature of the solid-liquid transition.

Data set [1] concerns Caco 2 cells (differentiating colorectal adenocarcinoma). The data set is described as follows: in vitro inhibition of cell proliferation / survival assay. It counts as cell-based. Particulars: Homo sapiens; for IC50: 48 h, average of three assays, standard error ± 0.5 μM; for viability at 25 µM: measured at 25 μM after 48 h, single dose, triplicate. On the procedure:
(§1) As an initial effort to investigate their in vitro bioactivity, the new synthesized 3-(4-arylmethylamino)butyl-2-thioxo-1,3-thiazolidine-4-one 9a–n and also their precursors 6a–f were evaluated for their in vitro inhibition of cell proliferation. For this study, we used a panel of seven representative tumoral cell lines, namely HuH7 D12 (differential hepato cellular carcinoma), Caco 2 (differentiating colorectal adenocarcinoma), MDA-MBD231 ([…]), HCT 116 (actively proliferating colorectal adenocarcinoma), PC3 (prostate carcinoma), NCI-H727 (lung carcinoma), HaCat keratinocyte and, diploid skin fibroblasts as normal cell lines for control.
(§2) Skin diploid fibroblastic cells were provided by BIOPREDIC International Company (Rennes, France). Caco2 (Ref ECACC: 86010202), Huh-7D12 (Ref ECACC: 01042712), MDA-MB-231 (Ref ECACC: 92020424), HCT-116 (Ref ECACC: 91091005), PC3 (Ref ECACC: 90112714), NCI-H727 (Ref ECACC: 94060303) cell lines were obtained from the ECACC collection and HaCaT (from Cell Lines Service, Eppelheim, Germany). Cells were grown according to ECACC recommendations. The toxicity test of the compounds on these cells was as follows: 2 × 10^3 cells for HCT-116 cells or 4 × 10^3 for the other cells were seeded in 96 multiwell plates in triplicate and left for 24 h for attachment, spreading and growing. Then, cells were exposed for 48 h to increasing concentrations of the compounds, ranging from 0.1 to 25 μM in a final volume of 120 μL of culture medium. Cells were fixed in cooled solution of 90% ethanol/5% acetic acid, nuclei were stained with Hoechst 3342 (Sigma) and counted using automated imaging analysis (Cellomics Arrayscan VTI/HCS Reader, Thermo/Scientific, Waltham, MA, USA). The IC50 were graphically determined.

In data set [2] the test system is HCT 116 cells (actively proliferating colorectal adenocarcinoma). The description is as above. Particulars: Homo sapiens; for IC50: 48 h, average of three assays, standard error ± 0.5 μM; for viability at 25 µM: measured at 25 μM after 48 h, single dose, triplicate. It counts as cell-based. On the procedure:
as §1, §2

The test system of a further data set is HaCat keratinocyte. Described as above. It counts as cell-based. Particulars: for IC50: 48 h, average of three assays, standard error ± 0.5 μM; for viability at 25 µM: measured at 25 μM after 48 h, single dose, triplicate. On the procedure: as §1, §2
Data set [3] deals with Huh7 D12 cells (differential hepato cellular carcinoma). The data set is described as above. It counts as cell-based. Particulars: for IC50: Huh-7D12, 48 h, average of three assays, standard error ± 0.5 μM; for viability at 25 µM: Huh-7D12, measured at 25 μM after 48 h, single dose, triplicate. On the procedure: as §1, §2
In another data set the test system is MDA-MB231 cells. The description is as above. It counts as cell-based. The settings on record: Homo sapiens; for IC50: MDA-MB-231, 48 h, average of three assays, standard error ± 0.5 μM; for viability at 25 µM: MDA-MB-231, measured at 25 μM after 48 h, single dose, triplicate. On the procedure: as §1, §2
In data set [4] the test system is NCI-H727 cells (lung carcinoma). The data set is described as above. It counts as cell-based. The settings on record: Homo sapiens, NCI-H727; for IC50: 48 h, average of three assays, standard error ± 0.5 μM; for viability at 25 µM: measured at 25 μM after 48 h, single dose, triplicate, read-out: % of Survival. On the procedure:
as §1, §2

The test system of data set [5] is PC3 cells (prostate carcinoma). Described as above. It counts as cell-based. The settings on record: Homo sapiens; for IC50: PC-3, 48 h, average of three assays, standard error ± 0.5 μM; for viability at 25 µM: PC-3, measured at 25 μM after 48 h, single dose, triplicate. On the procedure:
as §1, §2

In another data set the test system is diploid skin fibroblasts. In words: in vitro inhibition of cell proliferation / survival assay, normal cells control. It counts as cell-based. The settings on record: Skin fibroblast, Fibroblasts; for IC50: 48 h, average of three assays, standard error ± 0.5 μM; for viability at 25 µM: measured at 25 μM after 48 h, single dose, triplicate, read-out: % of Survival. On the procedure: as §1, §2

The target in another data set is T1, HsCDK5/p25 (Homo sapiens, UniProt Q00535).
T1 construct: made in house
In words: protein kinase assay, [γ-33P] ATP. The data set is classed as biochemical. On the procedure: (§3) Then, we evaluated the intermediates salts 6a–f and fourteen final compounds 9a–n on four protein kinases: HsCDK5-p25 (cyclin-dependant kinase 5-p25), SsGSK-3α/β (glycogen synthase kinase-3α/β) SsCK1δ/ε (Caseine kinase 1) and HsHaspin as an essential mitotic kinase. All assays were run in the presence of 15 μM of ATP and appropriate substrates. IC50 values were determined from dose-response curves. Concerning the library of the fourteen (5Z) 3-(4-arylmethylamino)butyl-5-arylidene-2-thioxo-1,3-thiazolidine-4-ones 9a–n and also the six diamines salts 6a–f, the results are given in Table 3. […] It is interesting to note that these two compounds are respectively substituted with an hydroxyl function on para-position of the 5-arylidene moiety and also with a similar bulky group (1,3-benzodioxol-5-yl for 9j and 2,3-dihydro-benzo[1,4]dioxin-6-yl for 9n) on the arylmethylamino moiety grafted on the N-3 butyl chain.
(§4) Kinase activities for each enzyme were assayed in buffer A (25 mM Tris-HCl pH 7.5, 10 mM MgCl2, 1 mM EGTA, 1 mM DTT, 50 µg/mL Heparin, BSA 0.15 mg/mL) or B (60 mM β-glycerophosphate, 30 mM p-Nitrophenylphosphate, 25 mM MOPS, 5 mM EGTA, 15 mM MgCl2, 1 mM DTT, 0.1 mM Na vanadate), with their corresponding substrates, in the presence of 15 µM [γ-^33P] ATP (3000 Ci/mmol; 10 mCi/mL) in a final volume of 30 µL. After 30 min incubation at 30 °C, the reaction was stopped by harvesting, using a FilterMate harvester (Packard, Meriden, CT, USA), onto P81 phosphocellulose papers (GE Healthcare, Velizy-Villacoublay, France) which were washed in 1% phosphoric acid. Scintillation fluid was added and the radioactivity measured in a Packard counter. Blank values were subtracted and activities calculated as pmoles of phosphate incorporated during the 30 min incubation. The activities were expressed in a percentage of the maximal activity, i.e., in the absence of inhibitors. Controls were performed with appropriate dilutions of DMSO. CK1 and Haspin peptide substrates were obtained from Proteogenix (Oberhausbergen, France).
CDK5/p25 (human, recombinant) was prepared as previously described. […]

In a further data set the target is SsGSK-3α/β. In words: protein kinase assay, [γ-33P] ATP. The data set is classed as biochemical, porcine. The settings on record: 15 μM ATP; GS-1 substrate; >10 = inhibitory but IC50 > 10 μM. On the procedure:
as §3, §4
GSK-3α/β (porcine brain, native) was assayed, as described for CDK5/p25 but in Buffer A and using a GSK-3 specific substrate (GS-1: […]pEDEEE) (pS stands for phosphorylated serine). GS-1 was synthesized by Millegen (Labege, France).

Another data set deals with SsCK1δ/ε. In words: protein kinase assay, [γ-33P] ATP. It counts as biochemical, porcine. The settings on record: 15 μM ATP; CKS peptide substrate; >10 = inhibitory but IC50 > 10 μM. On the procedure: as §3, §4
Casein kinase 1 (CK1δ/ε) (porcine brain, native) was assayed with 0.67 µg of CKS peptide ([…]pSAYSITA).

T1 sequence (Q00535 whole entry): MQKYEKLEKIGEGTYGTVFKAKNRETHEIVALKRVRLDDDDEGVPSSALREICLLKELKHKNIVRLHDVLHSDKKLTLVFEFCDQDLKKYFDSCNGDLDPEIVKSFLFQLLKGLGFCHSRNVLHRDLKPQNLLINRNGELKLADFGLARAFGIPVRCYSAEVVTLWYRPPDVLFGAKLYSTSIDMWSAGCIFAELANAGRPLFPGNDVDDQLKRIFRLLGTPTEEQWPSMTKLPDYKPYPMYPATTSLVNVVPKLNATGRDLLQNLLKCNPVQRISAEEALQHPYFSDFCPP
T1 sequence (Q15078 99-307 partner limits assumed): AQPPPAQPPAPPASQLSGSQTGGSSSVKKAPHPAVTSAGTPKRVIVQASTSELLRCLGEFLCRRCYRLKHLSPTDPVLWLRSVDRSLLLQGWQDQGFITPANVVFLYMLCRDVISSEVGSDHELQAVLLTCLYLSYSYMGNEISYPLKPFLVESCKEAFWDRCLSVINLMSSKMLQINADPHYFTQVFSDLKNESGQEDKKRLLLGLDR

Consider `O=C1/C(=C/c2ccc3c(c2)OCO3)SC(=S)N1CCCCNCc1ccc2c(c1)OCO2` [Compound 9h, (5Z)3-[4-(1,3-Benzodioxol-5-ylmethylamino)butyl]-5-(1,3-benzodioxol-5-ylmethylene)-2-thioxo-1,3-thiazolidin-4-one], for which the melting point was 245 to 256 °C. In data set [1], this compound gave an IC50 of 14 µM and a viability at 25 µM of 42%. In data set [2], this compound came in with a half-inhibitory concentration (IC50) of 13 µM and a viability at 25 µM of 65%. The compound also returned a half-inhibitory concentration (IC50) in the data set with HaCat keratinocyte (Homo sapiens, HaCaT) of 10 µM. In the data set with HaCat keratinocyte (Homo sapiens), this compound had a viability at 25 µM of 10%. In data set [3], this compound returned a 50% inhibitory concentration (IC50) of 10 µM and a viability at 25 µM of 7%. Also, in the data set with MDA-MB231 cells, the half-maximal inhibitory concentration (IC50) amounted to 10 µM and the viability at 25 µM was 49%. Moreover, in data set [4], the 50% inhibitory concentration (IC50) was above 25 µM and the viability at 25 µM came out at 43%. In [5], this compound yielded a half-maximal inhibitory concentration (IC50) of 13 µM and a viability at 25 µM of 51%. In addition, in the data set with diploid skin fibroblasts, the half-inhibitory concentration (IC50) is above 25 µM and the viability at 25 µM amounted to 80%. For the same compound, the midpoint of inhibition on HsCDK5/p25, the IC50, lay at 1.1 µM. The IC50 against SsGSK-3α/β was above 10 µM. The same compound displayed an IC50 on SsCK1δ/ε of 6.6 µM.

`O=C1/C(=C/c2ccc3c(c2)OCCO3)SC(=S)N1CCCCNCc1ccc2c(c1)OCO2` [Compound 9i, (5Z)3-[4-(1,3-Benzodioxol-5-ylmethylamino)butyl]-5-(2,3-dihydro-1,4-benzodioxin-6-ylmethylene)-2-thioxo-1,3-thiazolidin-4-one]: the melting point lay within 253 to 257 °C. In data set [1], the half-inhibitory concentration (IC50) amounted to 13 µM and the viability at 25 µM is 17%. Moreover, in [2], the 50% inhibitory concentration (IC50) was 14 µM and the viability at 25 µM amounted to 8%. For the same compound, the concentration for half-maximal inhibition (IC50) in the data set with HaCat keratinocyte worked out at 8 µM. Also, in the data set on HaCat keratinocyte (Homo sapiens, HaCaT), the IC50 was below 10 µM. The same compound came in with a viability at 25 µM in the data set with HaCat keratinocyte (Homo sapiens) of 6%. In [3], 9 µM corresponded to half-maximal inhibition (IC50) and the viability at 25 µM was 5%. In addition, in the data set on MDA-MB231 cells, the half-maximal inhibitory concentration (IC50) was 9 µM and the viability at 25 µM was 17%. Moreover, in data set [4], the IC50 was determined as 11 µM and the viability at 25 µM stood at 9%. For the same compound, in [5], half-maximal inhibition (IC50) required 14 µM and the viability at 25 µM turned out to be 39%. For the same compound, in the data set on diploid skin fibroblasts, the IC50 is above 25 µM and the viability at 25 µM came to 54%. Moreover, the IC50 against HsCDK5/p25 was 1.3 µM. This compound also yielded an IC50 against SsGSK-3α/β above 10 µM. This compound also came in with an IC50 on SsCK1δ/ε of 5.4 µM.

`O=C1/C(=C/c2ccc(O)cc2)SC(=S)N1CCCCNCc1ccc2c(c1)OCO2` [Compound 9j, (5Z)3-[4-(1,3-Benzodioxol-5-ylmethylamino)butyl]-5-(4-hydroxy-benzylidene)-2-thioxo-1,3-thiazolidin-4-one]: the IC50 amounted to 27 µM in data set [1]; 22 µM in data set [2]; 13 µM with HaCat keratinocyte (Homo sapiens, HaCaT); 11 µM in [3]; 19 µM in the data set with MDA-MB231 cells; 19 µM in data set [4]. The half-maximal inhibitory concentration (IC50) is 19 µM in [5]; above 25 µM in the data set on diploid skin fibroblasts; above 10 µM against HsCDK5/p25; above 10 µM against SsGSK-3α/β; 1.4 µM on SsCK1δ/ε. The viability at 25 µM in [1] was 41%; in [2], 40%; in the data set with HaCat keratinocyte (Homo sapiens), 21%; in [3], 22%; in the data set on MDA-MB231 cells, 42%; in [4] it was 33%. Moreover, the values for the viability at 25 µM (in data set [5]; in the data set on diploid skin fibroblasts) were 38% and 77%, respectively.

`COc1cc(/C=C2\SC(=S)N(CCCCNCc3ccc4c(c3)OCCO4)C2=O)ccc1O` [Compound 9n, (5Z)3-[4-(2,3-Dihydro-benzo[1,4]dioxin-6-ylmethylamino)butyl]-5-(4-hydroxy-3-methoxybenzylidene)-2-thioxo-1,3-thiazolidin-4-one]: the melting point fell in the range of 202 to 204 °C. In data set [1], this compound yielded a concentration for half-maximal inhibition (IC50) of 16 µM and a viability at 25 µM of 28%. Also, in [2], it took 21 µM to reach half-maximal inhibition (IC50) and the viability at 25 µM is 52%. Also, the half-maximal inhibitory concentration (IC50) in the data set with HaCat keratinocyte (Homo sapiens, HaCaT) came out at 15 µM. The viability at 25 µM with HaCat keratinocyte (Homo sapiens) came out at 48%. In data set [3], this compound returned a 50% inhibitory concentration (IC50) of 15 µM and a viability at 25 µM of 41%. In the data set on MDA-MB231 cells, this compound showed an IC50 of 15 µM and a viability at 25 µM of 55%. In addition, in data set [4], half-maximal inhibition (IC50) was put at 17 µM and the viability at 25 µM was 63%. Besides, in [5], inhibition was half-maximal at 19 µM (IC50) and the viability at 25 µM was 61%. In addition, in the data set with diploid skin fibroblasts, the IC50 is above 25 µM and the viability at 25 µM was 86%. Besides, the IC50 against SsGSK-3α/β is above 10 µM. For the same compound, 2 µM corresponded to half-maximal inhibition against SsCK1δ/ε (IC50).
